Source: US9273015B2, “s-Triazine compounds, pharmaceutical compositions and methods of using the same” (NEW YORK UNIVERSITY, priority 2010, dated 2016)
In brackets after ≈: the same amount, converted by molar mass. Entries after “also recorded” stand apart in the source; their conditions may differ. Like-named read-outs stand apart in the source and are kept apart here.

Experiments:
S. aureus = test: Growth inhibition (broth microdilution), S. aureus; type: cell-based, Staphylococcus aureus; conditions: for IC50: Table 3
Text: (§1) The antimicrobial activity of each peptide can be tested following standard broth microdilution protocols recommended by the National Committee for Clinical Laboratory Standard. Multidrug-resistant Staphylococcus aureus strain (ATCC BAA-44) and Acinetobacter baumannii (ATCC BAA-747) can be used in this study, as well as Ampicillin- and streptomycin-resistant Escherichia coli (D31), obtained from the E. coli Genetic Resource Center (Yale University, New Haven, Conn.). Bacteria can be grown overnight in Tryptic Soy broth at 37° C. Then, cultures are diluted in Mueller-Hinton broth to a final concentration range of 2×10^4 to 2×10^5 CFU/ml. Bacterial inocula are incubated at 37° C. in phosphate-buffered saline (PBS) buffer (pH7.2) with various dilutions of peptide stock. The 18-hour absorbance data are used to calculate the percentage of inhibition for each sample by comparison with the absorbance of cultures without sample. Bacterial growth is measured by turbidity as optical density at 600 nm (OD600), using a Genesys 5 Spectrophotometer (Rochester, N.Y.) or equivalent instrument. All assays can be carried out in triplicate. The concentration of peptide that results in 50% inhibition of growth is recorded as the IC50. In addition the concentration of agents needed can be monitored to reduce the bacterial population by three logs, IC99.9. This is a more rigorous indicator of the amount needed to prevent an infection.
(§2) The antimicrobial activity of each triazine compound was tested by following standard broth microdilution protocols recommended by the National Committee for Clinical Laboratory Standard. All compounds were initially tested against Bacillus subtilis (ATCC 6633; Rockville, Md.). Bacteria were grown in Mueller Hinton Broth (MHB) at 37° C. for overnight. Then, cultures were diluted in MHB to a final concentration of 2×10^4 to 2×10^5 CFU/mL. Bacterial inocula were incubated at 37° C. in PBS buffer (pH 7.2) with varying concentrations of 2-fold dilution of triazine stocks. The 18-hour absorbance data were used to calculate the percent inhibition for each sample by comparing with the absorbance of cultures without triazine compounds. Bacterial growth was measured by turbidity as optical density at 600 nm using a Genesys 5 Spectrophotometer (Rochester, N.Y.).

fresh sheep erythrocytes = test: Hemolytic activity; type: cell-based
Experimental: Hemolytic activity of triazine compounds is assessed using fresh sheep erythrocytes (Fitzgerald Inc., Concord, Mass.). The red blood cell suspension is incubated in PBS buffer (pH 7.2) with varying concentrations of sample stocks at 37° C. for 30 minutes, and then spun down at 3,000 rpm for 10 mins. The resulting supernatant is diluted by a factor of 40 with distilled water. The absorbance of the supernatant at 540 nm is measured using a Genesys 5 Spectrophotometer. Zero % and 100% hemolysis controls are obtained by incubating the cells with buffer and 1% Triton-X, respectively.
Hemolytic activity of three triazine compounds Is assessed on fresh sheep erythrocytes (Fitzgerald Inc., Concord, Mass.). The red blood cell suspension Is incubated in PBS buffer (pH 7.2) with varying concentrations of sample stocks at 37° C. for 30 minutes, and then spun down at 3,000 rpm for 10 mins. The resulting supernatant is diluted by a factor of 40 in distilled water. The absorbance of the supernatant at 540 nm is measured using a Genesys 5 Spectrophotometer. Zero hemolysis and 100% hemolysis controls are obtained by incubating the cells with buffer and 1% Triton-X, respectively. Sample concentration yielding 50% hemolysis is used as hemolytic dose (HD50) determined from dose-response curves.

E. coli D31 = test: Growth inhibition (broth microdilution), E. coli D31; type: cell-based, Escherichia coli
Text: as §1, §2

A. baumannii [1] = test: Growth inhibition (broth microdilution), A. baumannii; type: cell-based, Acinetobacter baumannii; conditions: Table 1
Text: as §1, §2

[2] = tested on: E. coli RP437/pRSH103 biofilm; test: Biofilm formation in 96 well plate (crystal violet, OD540); type: cell-based
Experimental: This assay is based on the protocols described previously (Li, 2001 #745; Pratt, 1998 #725) with slight modifications. Briefly, E. coli RP437 or the test strain is used to form biofilms in 96 well plates in the presence of dendrimer peptides (RW)4D or other agents. An overnight culture of E. coli RP437 grown in LB medium is used to inoculate LB medium in 96 well plates to an OD600 of 0.05. The peptides can be added to a final concentration of 0, 5, 10, 20, or 40 μM, respectively. Four replicates are tested for each condition. All samples are incubated at 37° C. without shaking for 24 hours to form the film. Then planktonic cells are removed and the plates with biofilms are washed three times with DI H2O and dried by gentle patting on a piece of paper towel. To stain the biofilms, 300 μL of 0.1% crystal violet is added into each well and incubated for 20 minutes at room temperature. Then the plates are washed three times with DI H2O to remove extra staining dye. OD540 is then measured to quantify the biofilm on the bottom of each well.
(§3) The strain for this experiment used was E. coli RP437/pRSH103, a strong film forming strain. The surface studied was that of a 96 well plate. Culture conditions were 24 hours or 48 hours of incubation in Luria-Bertani Broth (LB) supplemented with 10 μg/mL tetracycline at 37° C. The following assays were performed:
(§4) 1. Measurement of total cell growth in each well using OD600. 2. Quantification of the biofilm at the bottom of each well by staining with 0.1% crystal violet and reading OD540.
2. Quantification of total biofilm by dissolving the crystal violet with ethanol and reading at OD540 Absorbance at 540 nm and 600 nm with the medium and triazine only (no cells) was also measured to control the results by subtracting the background reading.

A. baumannii [3] = test: Evolution of resistance on exposure to sublethal concentrations; type: cell-based; conditions: 400 generations of exposure to sublethal concentrations
Text: FIG. 1 graphically depicts the experimental evaluation of the ability of A. baumannii to evolve resistance to sublethal TN5 and the AMP indolicidin relative to two antibiotics in current use. Changes in the IC50 of cultures exposed to sublethal doses of TN5 are expressed as ratios of the new to original values. For reference, the response of these cells to two current antibiotics is shown.
In particular, FIG. 1 depicts the results of the experimental evaluation of the ability of A. baumannii to evolve resistance to sublethal TN5 and the AMP indolicidin relative to two antibiotics in current use. Changes in the IC50 of cultures exposed to sublethal doses of TN5 are expressed as ratios of the new to original values. For reference, the response of these cells to ciprofloxacin and gentamycin, two current antibiotics is shown.

[4] = tested on: E. coli RP437/pRSH103 planktonic cells; test: Total planktonic cell growth (OD600); type: cell-based; conditions: concentration range 0-5 μg/mL
Experimental: as §3, §4

B. subtilis = test: Growth inhibition (broth microdilution), B. subtilis; type: cell-based; conditions: Bacillus subtilis; for MIC50: read-out: B. Subtilis MIC50; for MIC90: read-out: B. Subtilis MIC90; for IC50: Table 3
Experimental: as §2

[5] = Staphylococcus aureus, Table 2, read-out: S. Aureus MIC50
[6] = Staphylococcus aureus, Table 2, read-out: S. Aureus MIC90
[7] = Escherichia coli, D31, Table 2, read-out: E. Coli MIC50
[8] = Escherichia coli, D31, Table 2, read-out: E. Coli MIC90
[9] = Escherichia coli, D31, Table 3, read-out: E. coli IC50

Molecule | MIC50 (S. aureus; S. aureus, Table 1) [µg/mL] | MIC90 (S. aureus; S. aureus, Table 1) [µg/mL] | HD50 (fresh sheep erythrocytes; 50% hemolysis, Table 1) [µg/mL] | MIC50 (E. coli D31; E. coli D31, Table 1) [µg/mL] | MIC90 (E. coli D31; E. coli D31, Table 1) [µg/mL] | MIC50 (A. baumannii [1]) [µg/mL] | MIC90 (A. baumannii [1]) [µg/mL] | Acquired resistance (change in IC50, ratio of new to original) (A. baumannii [3]) | MIC50 (S. aureus; [5]) [µg/mL] | MIC90 (S. aureus; [6]) [µg/mL] | IC50 (S. aureus; Staphylococcus aureus) [µg/mL] | HD50 (fresh sheep erythrocytes; Table 3) [µg/mL] | MIC50 (B. subtilis; Table 2) [µg/mL] | MIC90 (B. subtilis; Table 2) [µg/mL] | IC50 (B. subtilis) [µg/mL] | MIC50 (E. coli D31; [7]) [µg/mL] | MIC90 (E. coli D31; [8]) [µg/mL] | further results
CCCCN(CCCC)CCCNc1nc(NCc2ccccc2)nc(Nc2cccc3ccccc23)n1 [TN2] | 12.1 (≈ 23.6 µM) | 14.55 (≈ 28.4 µM) | 840.8 | 26.9 (≈ 52.6 µM) | 55.6 (≈ 109 µM) | 12.8 (≈ 25 µM) | 15.8 (≈ 30.9 µM) |  |  |  |  |  |  |  |  |  |  | 
NCCCCNc1nc(NCc2ccccc2)nc(Nc2cccc3ccccc23)n1 [TN3] | 50.1 (≈ 121 µM) | 71.3 (≈ 172 µM) | 901.9 | 40 (≈ 96.7 µM) | 84.8 (≈ 205 µM) | 50.8 (≈ 123 µM) | 77.4 (≈ 187 µM) |  |  |  |  |  |  |  |  |  |  | 
CCCCN(CCCC)CCCNc1nc(NCc2ccccc2)nc(NCc2cccc3ccccc23)n1 [TN4] | 68 (≈ 129 µM) | 117.5 (≈ 223 µM) | 221.3 | 18.8 (≈ 35.8 µM) | 62.5 (≈ 119 µM) | 302.5 (≈ 575 µM) | 462.5 (≈ 880 µM) |  |  |  |  |  |  |  |  |  |  | 
NCCCCNc1nc(NCc2ccccc2)nc(NCc2cccc3ccccc23)n1 [TN5] | 5.9 (≈ 13.8 µM) | 9.8 (≈ 22.9 µM) | 167.5 | 4.75 (≈ 11.1 µM) | 8.9 (≈ 20.8 µM) | 3 (≈ 7.02 µM) | 5.1 (≈ 11.9 µM) | does not acquire resistance |  |  |  |  |  |  |  |  |  | Biofilm formation ([2]; E. coli): prevents film formation; Biofilm formation ([2]; E. coli, listed as TN-5): prevents formation of biofilms; Biofilm formation ([2]; at 1, 5, 10 μg/mL, 24 or 48 hours in LB): inhibited biofilm formation; Growth of planktonic cells [4]: does not inhibit growth of planktonic cells
CCCCN(CCCC)CCCNc1nc(NCCc2c[nH]c3ccccc23)nc(NCCc2c[nH]c3ccccc23)n1 [TZ-WK(Bu)2W] |  |  |  |  |  |  |  |  | 1.8 (≈ 3.09 µM) | 2.4 (≈ 4.13 µM) | 1.8 (≈ 3.09 µM) | 91.5 | 1 (≈ 1.72 µM) | 3.1 (≈ 5.33 µM) | 1 (≈ 1.72 µM) | 21.3 (≈ 36.6 µM) | 55.2 (≈ 94.9 µM) | IC50 (E. coli D31; [9]): 21.3 µg/mL (≈ 36.6 µM)
NCCCNc1nc(NCCc2c[nH]c3ccccc23)nc(NCCc2c[nH]c3ccccc23)n1 [TZ-WKW] |  |  |  |  |  |  |  |  | 3.4 (≈ 7.24 µM) | 4.4 (≈ 9.37 µM) | 3.4 (≈ 7.24 µM) | 65 | 1.5 (≈ 3.19 µM) | 2.3 (≈ 4.9 µM) | 1.5 (≈ 3.19 µM) | 4.5 (≈ 9.58 µM) | 6 (≈ 12.8 µM) | IC50 (E. coli D31; Escherichia coli, D31, read-out: E. coli IC50): 4.5 µg/mL (≈ 9.58 µM)
N=C(N)NCCNc1nc(NCCc2c[nH]c3ccccc23)nc(NCCc2c[nH]c3ccccc23)n1 [TZ-WRW] |  |  |  |  |  |  |  |  | 3.3 (≈ 6.63 µM) | 3.5 (≈ 7.03 µM) | 3.3 (≈ 6.63 µM) | 43.6 | 2.9 (≈ 5.83 µM) | 5.1 (≈ 10.2 µM) | 2.9 (≈ 5.83 µM) | 4.1 (≈ 8.24 µM) | 9.1 (≈ 18.3 µM) | IC50 (E. coli D31; [9]): 4.1 µg/mL (≈ 8.24 µM)
CN[C@H](CC(C)C)C(=O)N[C@H]1C(=O)N[C@@H](CC(N)=O)C(=O)N[C@H]2C(=O)N[C@H]3C(=O)N[C@H](C(=O)N[C@H](C(=O)O)c4cc(O)cc(O)c4-c4cc3ccc4O)[C@H](O)c3ccc(c(Cl)c3)Oc3cc2cc(c3O[C@@H]2O[C@H](CO)[C@@H](O)[C@H](O)[C@H]2O[C@H]2C[C@](C)(N)[C@H](O)[C@H](C)O2)Oc2ccc(cc2Cl)[C@H]1O [Vancomycin, reference compound] |  |  |  |  |  |  |  | marked contrast |  |  |  |  |  |  |  |  |  | MIC50 (S. aureus; Staphylococcus aureus, read-out: S. Aureus MIC50): 0.8 µg/mL (≈ 0.552 µM); MIC90 (S. aureus; Staphylococcus aureus, read-out: S. Aureus MIC90): 1.2 µg/mL (≈ 0.828 µM); MIC50 (B. subtilis): < 0.8 µg/mL; MIC90 (B. subtilis): < 0.8 µg/mL; MIC50 (E. coli D31; Escherichia coli, D31, read-out: E. Coli MIC50): 192 µg/mL (≈ 132 µM); MIC90 (E. coli D31; Escherichia coli, D31, read-out: E. Coli MIC90): > 200 µg/mL
O=C(O)c1cn(C2CC2)c2cc(N3CCNCC3)c(F)cc2c1=O [ciprofloxacin] |  |  |  |  |  |  |  | significant increase in the IC50 |  |  |  |  |  |  |  |  |  | 
gentamycin |  |  |  |  |  |  |  | marked contrast; also recorded: significant increase in the IC50 |  |  |  |  |  |  |  |  |  | 
